Where two headings read alike, the source gives them in different places.
Key:
ConA [1] = molecular target: T1, ConA (Canavalia ensiformis, UniProt P02866); settings: cited from earlier work
ConA [2] = molecular target: T1, ConA
Description: To explore whether the interaction of ConA with the core trimannose leads to aggregation in free solution, dynamic light scattering (DLS) measurements were performed. […] The TRIS buffer was 10 mM TRIS, 1 M NaCl, 1 mM CaCl2, 1 mM MnCl2, at pH 7.4. The dextran was 2 MDa and used as received from Sigma.
As controls, solutions of the individual components were also scanned to determine the particle size in the absence of aggregation. The final concentration was 3 μM for the competing ligand and 3 μM for ConA. Negative controls were run for each competing ligand (3 μM) without ConA present. ConA was also independently added to a separate control cuvette (3 μM). All solutions were in TRIS buffer and were filtered prior to combining the solutions. After 12 hours, the solutions were mixed to allow for the re-suspension of any settled material and dynamic light scattering studies were performed. The reported data is the average particle size as determined by percent-volume.

Compound: O=C[C@H](O)[C@@H](O)[C@@H](O)[C@H](O)CO [galactose]
- affinity to ConA (ConA [1]): no affinity

Compound: OC[C@H]1O[C@H](OC[C@H]2OC(O)[C@@H](O)[C@@H](O[C@H]3O[C@H](CO)[C@@H](O)[C@H](O)[C@@H]3O)[C@@H]2O)[C@@H](O)[C@@H](O)[C@@H]1O (stereo partly drawn) [trimannose, 3,6-Di-O-(α-D-mannopyranosyl)-D-mannopyranose]
- average size of particles in solution with ConA (ConA [2]; 3 μM ligand, 3 μM ConA, TRIS buffer, 12 hours, 22° C., DLS): did not increased in size
- aggregation when paired with ConA (ConA [2]; summary statement, DLS study): no aggregation
- affinity to ConA (ConA [1]; previously shown / literature value): ~330000 M⁻¹

Compound: methyl mannose
- binding affinity to ConA relative to glucose (ConA [1]; known value): 20-40 times

— patent US20140350370A1, “GLUCOSE SENSING ASSAY” (The Texas A&M University System, priority 2013, published 2014)
